Measurements taken from patent publication US20230060588A1 (priority 2021, published 2023).

How the values were obtained:
[1] = system: SARS-CoV-2; settings: cited from earlier work
[2] = system: SARS-CoV-2 S1 protein; format: cell-based
[3] = system: PANC1 cells; format: cell-based
[4] = system: LN18 cells; format: cell-based
[5] = system: A549 ACE2+ cells
[6] = system: MCF7 cells; format: cell-based
[7] = system: PANC1 cells; format: cell-based; remark: listed apart in the source
[8] = system: MCF7 cells; format: cell-based; remark: listed apart in the source
[9] = system: Reporter mNeonGreen SARS-CoV-2 virus (2019-nCoV/USA_WA1/2020); format: cell-based
[10] = system: MDA-MB-231 cells; format: cell-based
[11] = system: ACE2; format: cell-based, human
[12] = system: A549 cells; format: cell-based, human
[13] = system: SARS-CoV-2 S1 protein-ACE2; format: binding
[14] = system: A375 cells
[15] = system: A375 cells; format: cell-based
[16] = system: MCF7 cells

Structure (SMILES): CN(Cc1cnc2nc(N)nc(N)c2n1)c1ccc(C(=O)N[C@@H](CCC(=O)O)C(=O)O)cc1 [methotrexate]
- SARS-CoV-2 replication [1]: reduced

Structure (SMILES): O=C[C@@H](O)[C@@H](O)[C@H](O)[C@H](O)CO [D-mannose]
- ECL binding to S1 protein [2]: significantly reduced
- MAL1 binding to S1 protein [2]: moderately reduced
- MAL2 binding to S1 protein [2]: moderately reduced
- PNA binding to S1 protein [2]: No PNA binding was observed
- RSL binding to S1 protein [2]: significantly reduced
- SNA binding to S1 protein [2]: no change
- ECL binding [3]: generally reduced
- MAL2 binding [3]: increasing
- PNA binding [3]: generally reduced
- SNA binding [3]: increasing
- ECL binding [4]: significantly reduced
- MAL2 binding [4]: no effect on enhancing
- PNA binding [4]: significantly reduced
- SNA binding [4]: no effect on enhancing
- cytotoxicity [5]: no observed cytotoxicity
- total cell count [5]: negligible difference in cell count
- ECL binding [6]: generally reduced
- MAL2 binding [6]: increasing
- PNA binding [6]: generally reduced
- SNA binding [6]: increasing
- disialyl T antigen/T antigen ratio [7]: significantly increased
- sialyl T antigen/T antigen ratio [7]: significantly increased
- disialyl T antigen/T antigen ratio [8]: significantly enhanced
- sialylation of complex N-glycans [8]: sialic acids were added to multiple N-glycans
- cytoprotection [9]: significant cytoprotection
- reduction in viral replication [9]: ~70%
- ECL binding [10]: significantly reduced
- MAL2 binding [10]: no effect on enhancing
- PNA binding [10]: significantly reduced
- SNA binding [10]: no effect on enhancing
- ACE2 expression [11]: did not significantly change
- ECL binding [12]: significantly reduced
- MAL2 binding [12]: slightly enhancing
- PNA binding [12]: minimal to no influence
- SNA binding [12]: minimal to no influence
- ACE2 binding of S1 protein [13]: reduced ACE2 binding

Structure (SMILES): CC(=O)OC1O[C@H](CO)[C@@H](OC(C)=O)[C@H](O)[C@@H]1O (stereo partly drawn) [1,4-di-O-acetyl-D-mannopyranose]
- cell viability [14]: did not have any influence on cell viability
- ECL binding [15]: no effect
- MAL2 binding [15]: no effect
- PNA binding [15]: significantly reduced
- SNA binding [15]: no effect

Structure (SMILES): CC(=O)OC1O[C@H](CO)[C@@H](OC(C)=O)[C@H](OC(C)=O)[C@@H]1OC(C)=O (stereo partly drawn) [1,2,3,4-tetra-O-Acetyl-D-mannopyranose]
- ECL binding [6]: moderately reduced
- MAL2 binding [6]: no effect
- PNA binding [6]: significantly reduced
- SNA binding [6]: no effect
- cell toxicity [16]: induced cell toxicity at a higher concentration
- concentrations having no impact on cell viability ([16]; human): less than 0.7 mM
